Consider three molecules from patent US10005731B2, “Modulators of the retinoid-related orphan receptor gamma (ROR-gamma) for use in the treatment of autoimmune and inflammatory diseases” (Glaxo Group Limited, priority 2012, dated 2018).

Read-outs that look alike come from different tables or passages of the source.

Data set [1] addresses T1, RORγ (Homo sapiens, UniProt P51449).
T1 construct: expressed in transfected cells
T1 sequence (P51449 1-497 isoform P51449-2): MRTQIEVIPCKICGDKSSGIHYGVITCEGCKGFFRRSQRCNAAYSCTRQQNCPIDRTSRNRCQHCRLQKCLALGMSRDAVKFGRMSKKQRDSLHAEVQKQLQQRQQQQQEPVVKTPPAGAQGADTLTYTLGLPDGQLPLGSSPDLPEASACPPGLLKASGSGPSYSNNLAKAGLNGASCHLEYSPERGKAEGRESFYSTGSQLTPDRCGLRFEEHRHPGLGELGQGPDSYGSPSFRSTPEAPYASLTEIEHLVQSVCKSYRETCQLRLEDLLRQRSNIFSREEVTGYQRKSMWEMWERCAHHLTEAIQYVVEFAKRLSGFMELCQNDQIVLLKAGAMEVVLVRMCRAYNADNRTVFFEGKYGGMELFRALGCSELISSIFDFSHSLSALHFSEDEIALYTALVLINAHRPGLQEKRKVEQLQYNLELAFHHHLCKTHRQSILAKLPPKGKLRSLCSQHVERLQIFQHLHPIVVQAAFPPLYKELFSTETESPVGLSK
As to the kind of experiment: Jurkat cell luciferase assay (human IL17 promoter reporter, RORγt overexpression). Conditions: mean pIC50; detection limit of the assay 5. It is filed as cell-based. From the text:
RORγ is known to bind to a CNS (conserved non-coding sequences) enhancer element in the IL17 promoter. In this assay, RORγ activity is indirectly assessed using a luciferase reporter construct which contains the human IL17 promoter having the RORγ-specific CNS enhancer element. Inhibition of RORγ activity by a compound will result in a decrease in luciferase activity of Jurkat cells transfected with the reporter construct.
. For the 1.1 Kb fragment, PCR was used to amplify human IL17 proximal promoter region from genomic DNA of 293T cells using primers as follows: forward primer, 5′-[…]-3′ (SEQ ID NO. 4) (Xhol site is underlined) and reverse primer, 5′-[…]-3′ SEQ ID NO. 5) (HindIII site is underlined). The 1.1 kb DNA bands were excised, purified, and inserted into pMD19-T Simple Vector (Takara). After DNA sequencing confirmation, the 1.1 kb DNA was digested with XhoI and HindIII and inserted into XhoI/HindIII sites of pGL4.31[luc2P/GAL4UAS/Hygro] (Promega) to generate the pIL17-lkb-luc reporter construct. For the 1.9 Kb fragment, PCR was used to amplify human IL17 promoter region from genomic DNA using primers as follows: forward primer, 5′-[…]-3′ (SEQ ID NO. 6) (KpnI site is underlined) and reverse primer, 5′-[…]-3′ (SEQ ID NO. 7)(XhoI site is underlined). The resulting 1.9 kb DNA bands were excised, gel purified, and cloned into a pMD19-T Simple Vector (Takara). […] The 1.9 kb DNA fragment was released by double digestion with KpnI and XhoI and inserted into pIL17-lkb-luc to generate the luciferase reporter plasmid “pIL17-3kb-CNS-luc.” To overexpress RORγt, the full-length cDNA of human RORγt identical to the published sequence NM13 001001523 was cloned into pcDNA3.1 at the KpnI-NotI cloning sites to generate the RORγt overexpression plasmid “CDNA3.1DhRORγ49-8”. […]
Compounds were dissolved in DMSO at three concentrations, 10 mM, 400 uM and 16 uM, and were dispensed into 384-wells assay plate at 40 nl, 12.5 nl, 5 nl respectively. The volume was adjusted with pure DMSO to a give a final uniform volume of 40 nl Jurkat cells described above were counted and centrifuged. […]

Data set [2] has as its system Mouse CD4+ cells. The data set is described as follows: Th17 cell differentiation assay (IL-17 ELISA). The note with it: table with percutaneous study. The data set is classed as cell-based. The method, then:
Mouse CD4+cells were purified using the CD4+ T Cell Isolation II Kit according to manufacturer's instructions (Miltenyi Biotec). 96 well plates were pre-coated with anti-mCD3 antibody. Un-coated wells were used as controls. CD4+ Cells were resuspended in RPMI 1640 complete medium and were added to the 96-well plates. Cytokine cocktail and the compound were then added to the wells. Antibodies and cytokines (all from R&D Systems) used in the assay were selected from the following: anti-mCD3; anti-mCD28; anti-mIFNγ; anti-mIL4; mIL-6; mIL-23; mIL-1β; hTGF-β1. The culture was incubated at 37° C. for 3 days and supernatants were collected for ELISA. The IL-17 ELISAs were performed according to manufacturer's instructions (R&D Systems). The results were analyzed using Prism software with non-linear regression to determine pIC50.

Data set [3] is described as follows: In vitro percutaneous study (Franz diffusion cells, aqueous cream). It is filed as in vitro ADME, human. The note with it: 1.0% w/w in aqueous cream pH=6, 5 mg/cm^2, human skin from three donors. From the text:
The in vitro percutaneous study is aimed to predict the level of percutaneous penetration obtained for a compound in a topical formulation for psoriasis. This assay coupled with the intrinsic potency of the compound are used to predict the likelihood of success of a compound to engage the target. The higher the ratio of the percutaneous penetration to the intrinsic potency, the higher the ratio of local skin concentration to the intrinsic potency and therefore the higher the chance of a compound to engage the target in a topical formulation.
The compounds were manufactured in a modified aqueous cream at pH=6.
The study was conducted with dermatomed abdominal human skin sourced from three skin donors using 2 cm2 Franz diffusion cells. The receiving fluid consisted of Bovine serum albumin (4% w/v) in 0.1% w/v sodium azide in Phospate Buffer Saline and was heated at 37° C. in order to obtain 32° C. at the skin surface. The cream formulation was applied on the donor side at a 10 mg dose, i.e. 5 mg/cm^2. The samples taken at the following time points: t=0, 3, 6, 9 and 24 h. The receiver samples were then assayed using a method based upon protein precipitation with acetonitrile followed by LC/MS/MS analysis. The percutaneous flux (in ng/cm^2/hr) was determined using the individual API (in a multiple composition) that had permeated into the receiver compartment over 24 hrs per cm^2.

[4] abbreviates: read-out: Th17 cell differentiation assay IC50.
Setting [5] is: read-out: Th17 cell differentiation assay pIC50 (converted).

In data set [1], `Cc1cnc(C(=O)Nc2cc(F)cc(CN3CCN(C(=O)C4CCCC4)[C@@H](C)C3)c2C)cn1` [Example 36, (S)-N-(3-((4-(cyclopentanecarbonyl)-3-methylpiperazin-1-yl)methyl)-5-fluoro-2-methylphenyl)-5-methylpyrazine-2-carboxamide] showed an IC50 greater than 10000 nM.
Turning to `Cc1ccc(C(=O)Nc2cc(F)cc(CN3CCN(C(=O)CC4CCC4)[C@@H](C)C3)c2C)cn1` [Example 163, (S)-N-(3-((4-(2-cyclobutylacetyl)-3-methylpiperazin-1-yl)methyl)-5-fluoro-2-methylphenyl)-6-methylnicotinamide], the IC50 was 0.0114 µg/mL in data set [2] (setting [4]) and 25.1 nM in data set [2] (setting [5]). In data set [3], the “Flux over 24 hrs” value was determined as 7.73 ng/cm^2/hr.
The like results for `Cc1ccc(C(=O)Nc2cc(F)cc(CN3CCN(C(=O)C4CC(C)(C)C4)[C@@H](C)C3)c2C)cn1` [Example 164, (S)-N-(3-((4-(3,3-dimethylcyclobutanecarbonyl)-3-methylpiperazin-1-yl)methyl)-5-fluoro-2-methylphenyl)-6-methylnicotinamide] were, in that order, 0.0093 µg/mL, 20 nM and 3.12 ng/cm^2/hr.
